“And” between values parts separate entries of the source, which are not always exact repeats. Equal entries are not always repeated. Inconclusive results and toxic doses are left out. No stated cut-off is given here; in the data, active means T/C of 150% or more; inactive means T/C below 125%.
System: L1210 leukemia ip in BDF1 mice, survival T/C
Assay: NCI In Vivo Anticancer Drug Screen. Data for tumor model L1210 Leukemia (intraperitoneal) in B6D2F1 (BDF1) mice
Conditions: endpoint: mean survival time, higher = longer survival
Procedure, shortened: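 Transplanted-tumor mice were given test agent; controls received vehicle only. Survival readings from the two groups were divided (treated over control).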

[1] = dose: 100.0 mg/kg/injection, schedule: Q01DX001 (ip), vehicle: saline with Tween-80
[2] = dose: 200.0 mg/kg/injection, schedule: Q01DX001 (ip), vehicle: saline with Tween-80
[3] = dose: 400.0 mg/kg/injection, schedule: Q01DX001 (ip), vehicle: saline with Tween-80
[4] = dose: 100.0 mg/kg/injection, schedule: Q04DX003 (ip), vehicle: Klucel (hydroxypropylcellulose) (HPC)
[5] = dose: 200.0 mg/kg/injection, schedule: Q04DX003 (ip), vehicle: Klucel (hydroxypropylcellulose) (HPC)
[6] = dose: 400.0 mg/kg/injection, schedule: Q04DX003 (ip), vehicle: Klucel (hydroxypropylcellulose) (HPC)
[7] = dose: 100.0 mg/kg/injection, schedule: Q01DX009 (ip), vehicle: saline with Tween-80
[8] = dose: 100.0 mg/kg/injection, schedule: Q04DX003 (ip), vehicle: saline with Tween-80
[9] = dose: 200.0 mg/kg/injection, schedule: Q04DX003 (ip), vehicle: saline with Tween-80
[10] = dose: 400.0 mg/kg/injection, schedule: Q04DX003 (ip), vehicle: saline with Tween-80
[11] = dose: 100.0 mg/kg/injection, schedule: Q01DX009 (ip), vehicle: Klucel (hydroxypropylcellulose) (HPC)
[12] = dose: 200.0 mg/kg/injection, schedule: Q01DX009 (ip), vehicle: Klucel (hydroxypropylcellulose) (HPC)
[13] = dose: 200.0 mg/kg/injection, schedule: Q01DX001 (ip), vehicle: carboxymethylcellulose (CMC)
[14] = dose: 400.0 mg/kg/injection, schedule: Q01DX001 (ip), vehicle: carboxymethylcellulose (CMC)

Measured: T/C

C=C(C(=O)OC1CC2CCC(C1)N2C)c1ccccc1 (stereo not drawn)
inactive: dose: 1.25 mg/kg/injection, schedule: Q01DX Z (ip), vehicle: saline 90 % of control | dose: 1.25 mg/kg/injection, schedule: Q04DX003 (ip), vehicle: Klucel (hydroxypropylcellulose) (HPC) 113 % of control | dose: 2.5 mg/kg/injection, schedule: Q01DX Z (ip), vehicle: saline 105 % of control | dose: 2.5 mg/kg/injection, schedule: Q04DX003 (ip), vehicle: Klucel (hydroxypropylcellulose) (HPC) 101 % of control | dose: 5.0 mg/kg/injection, schedule: Q01DX Z (ip), vehicle: saline 97 % of control | dose: 5.0 mg/kg/injection, schedule: Q04DX003 (ip), vehicle: Klucel (hydroxypropylcellulose) (HPC) 107 % of control | dose: 10.0 mg/kg/injection, schedule: Q01DX001 (ip), vehicle: carboxymethylcellulose (CMC) 111 % of control | dose: 10.0 mg/kg/injection, schedule: Q04DX003 (ip), vehicle: Klucel (hydroxypropylcellulose) (HPC) 106 % of control | dose: 20.0 mg/kg/injection, schedule: Q01DX001 (ip), vehicle: carboxymethylcellulose (CMC) 93 % of control

O=C1COC(C(Cl)(Cl)Cl)CN1 (stereo not drawn)
inactive: [1] 108 % of control | [2] 105 % of control | [3] 103 % of control

COC(=O)c1cc(OC)nc(OC)c1
inactive: [4] 102 % of control | [5] 110 % of control | [6] 96 % of control

CCNC(=S)Nc1ccccc1
inactive: dose: 37.5 mg/kg/injection, schedule: Q01DX009 (ip), vehicle: Klucel (hydroxypropylcellulose) (HPC) 102 % of control | dose: 75.0 mg/kg/injection, schedule: Q01DX009 (ip), vehicle: Klucel (hydroxypropylcellulose) (HPC) 104 % of control | dose: 150.0 mg/kg/injection, schedule: Q01DX009 (ip), vehicle: Klucel (hydroxypropylcellulose) (HPC) 115 % of control

CC(=O)NNC(=O)Nc1cccc(C(F)(F)F)c1
inactive: dose: 50.0 mg/kg/injection, schedule: Q01DX009 (ip), vehicle: saline with Tween-80 94 % of control | [7] 91 % of control

c1ccc(-c2nnn(-c3ccccc3)n2)cc1
inactive: [8] 94 % of control | [9] 93 % of control | [10] 98 % of control

CCCCCCCCCCCCN1CCC(=O)NC1=O
inactive: [7] 100 % of control | dose: 200.0 mg/kg/injection, schedule: Q01DX009 (ip), vehicle: saline with Tween-80 97 % of control

O=C(NCCCCCCCCCCCCNC(=O)Nc1cccc(C2=NCC(O)CN2)c1)Nc1cccc(C2=NCC(O)CN2)c1 (stereo not drawn)
inactive: dose: 62.5 mg/kg/injection, schedule: Q01DX Z (ip), vehicle: carboxymethylcellulose (CMC) 105 % of control | dose: 125.0 mg/kg/injection, schedule: Q01DX Z (ip), vehicle: carboxymethylcellulose (CMC) 94 % of control

COc1ccc(/C=C/c2nc3ccccc3nc2/C=C/c2ccc(OC)c(OC)c2)cc1OC
inactive: [11] 95 % of control | [4] 88 % of control | [12] 86 % of control | [5] 91 % of control | [6] 97 % of control

CCCc1nc2c(c(=O)n(C)c(=O)n2C)n1C
inactive: dose: 45.0 mg/kg/injection, schedule: Q01DX001 (ip), vehicle: saline 97 % of control and 98 % of control | dose: 67.0 mg/kg/injection, schedule: Q01DX001 (ip), vehicle: saline 97 % of control and 103 % of control | dose: 100.0 mg/kg/injection, schedule: Q01DX001 (ip), vehicle: saline 94 % of control and 101 % of control | dose: 150.0 mg/kg/injection, schedule: Q01DX001 (ip), vehicle: saline 98 % of control and 101 % of control

Cc1ccc(CNC(=O)Nc2cccc(Cl)c2)cc1C
inactive: [11] 97 % of control | [12] 92 % of control | dose: 400.0 mg/kg/injection, schedule: Q01DX009 (ip), vehicle: Klucel (hydroxypropylcellulose) (HPC) 103 % of control

COC(=O)C[CH2][Ge]([CH3])([CH3])[CH3]
inactive: dose: 6.25 mg/kg/injection, schedule: Q04DX002 (ip), vehicle: saline with Tween-80 89 % of control | dose: 12.5 mg/kg/injection, schedule: Q04DX002 (ip), vehicle: saline with Tween-80 96 % of control | dose: 25.0 mg/kg/injection, schedule: Q04DX002 (ip), vehicle: saline with Tween-80 96 % of control | dose: 100.0 mg/kg/injection, schedule: Q04DX002 (ip), vehicle: saline with Tween-80 95 % of control | dose: 200.0 mg/kg/injection, schedule: Q04DX002 (ip), vehicle: saline with Tween-80 95 % of control | dose: 400.0 mg/kg/injection, schedule: Q04DX002 (ip), vehicle: saline with Tween-80 93 % of control

O=C1Cc2cccc3cccc1c23
inactive: [8] 102 % of control | [9] 106 % of control | [10] 104 % of control

O=C1c2cccc(S(=O)(=O)O)c2C(=O)c2c1cccc2S(=O)(=O)O
inactive: dose: 50.0 mg/kg/injection, schedule: Q01DX001 (ip), vehicle: carboxymethylcellulose (CMC) 109 % of control | dose: 100.0 mg/kg/injection, schedule: Q01DX001 (ip), vehicle: carboxymethylcellulose (CMC) 111 % of control | [13] 109 % of control | [14] 103 % of control

Cc1c(C#N)oc2c(Cl)cc(Cl)cc12
inactive: [11] 99 % of control | [4] 100 % of control | [12] 99 % of control | [5] 100 % of control | [6] 101 % of control

O=C(O)c1ccccc1CN1CCCC(C(=O)O)C1 (stereo not drawn)
inactive: dose: 6.25 mg/kg/injection, schedule: Q01DX009 (ip), vehicle: saline with Tween-80 101 % of control | dose: 12.5 mg/kg/injection, schedule: Q01DX009 (ip), vehicle: saline with Tween-80 97 % of control | dose: 25.0 mg/kg/injection, schedule: Q01DX009 (ip), vehicle: saline with Tween-80 92 % of control

CS(=O)CCCC(=O)O (stereo not drawn)
inactive: [1] 102 % of control | [2] 94 % of control | [3] 97 % of control

CC1CC=CC(N2C(=O)c3ccccc3C2=O)C1 (stereo not drawn)
inactive: [13] 91 % of control | [14] 93 % of control

O=[N+]([O-])c1cc(C(F)(F)F)cc([N+](=O)[O-])c1Cl
inactive: dose: 12.5 mg/kg/injection, schedule: Q01DX001 (ip), vehicle: Klucel (hydroxypropylcellulose) (HPC) 91 % of control | dose: 25.0 mg/kg/injection, schedule: Q01DX001 (ip), vehicle: Klucel (hydroxypropylcellulose) (HPC) 91 % of control

CCN(Cc1ccccc1)C(=S)[S-].CCN(Cc1ccccc1)C(=S)[S-].[Zn]
inactive: dose: 100.0 mg/kg/injection, schedule: Q04DX003 (ip), vehicle: saline 91 % of control | dose: 200.0 mg/kg/injection, schedule: Q04DX003 (ip), vehicle: saline 94 % of control | dose: 400.0 mg/kg/injection, schedule: Q04DX003 (ip), vehicle: saline 89 % of control

O=C1NC(=S)S/C1=C\c1ccc(F)cc1
inactive: dose: 12.5 mg/kg/injection, schedule: Q04DX003 (ip), vehicle: saline with Tween-80 117 % of control | dose: 25.0 mg/kg/injection, schedule: Q04DX003 (ip), vehicle: saline with Tween-80 98 % of control | dose: 50.0 mg/kg/injection, schedule: Q04DX003 (ip), vehicle: saline with Tween-80 103 % of control

— PubChem BioAssay AID248 (DTP/NCI, 2004)
